Among the test systems are RXF 393; SN12C; COLO 205; RPMI-8226; IGROV-1; SK-OV-3; PC-3; TK-10; OVCAR-5; MDA-MB-231; DU-145; SNB-75; MCF7; MDA-MB-435; 786-0; CAKI-1; SK-MEL-2; Malme-3M; SK-MEL-28.
What all share (experiment): NCI-60 cell line screen, 48 h

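Cells were grown in 96-well plates and exposed to each compound for 48 hours at five concentrations; endpoints were interpolated linearly between bracketing concentrations, or set to the highest concentration if not reached. GI50 is the concentration that inhibits growth by half.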 The source made the active and inactive calls. Rule as the data show it: active = GI50 up to about 1.1 µM and inactive = higher. Some results are limits rather than exact numbers.

Regarding `O=C1Nc2ccccc2C(=O)/C1=C/NC(=S)NC1CCCCC1`, the GI50 in the assay with RXF 393, with SN12C, in the assay with COLO 205, with RPMI-8226, in the assay with IGROV-1 and with SK-OV-3 was > 100 µM (inactive) throughout. Further, the GI50 with PC-3, in the assay with TK-10, with OVCAR-5, in the assay with MDA-MB-231, in the assay with DU-145 and in the assay on SNB-75 was > 100 µM (inactive) throughout. Also, the GI50 in the assay on MCF7, in the assay with MDA-MB-435, with 786-0, in the assay with CAKI-1 and in the assay with SK-MEL-2 was > 100 µM (inactive) each time.

In the case of `CC(=O)OCC1OC(NC(=S)Nn2c(=O)[nH]c3ccccc3c2=O)C(OC(C)=O)C(OC(C)=O)C1OC(C)=O` (stereo not drawn), the GI50 in the assay with RXF 393, in the assay with SN12C, in the assay with COLO 205, with RPMI-8226, with IGROV-1 and in the assay on SK-OV-3 was > 100 µM (inactive) throughout. Moreover, the GI50 in the assay with PC-3, in the assay with OVCAR-5, in the assay with MDA-MB-231, in the assay on DU-145, with Malme-3M and with SNB-75 was > 100 µM (inactive) each time. For the same compound, the GI50 in the assay with SK-MEL-28, in the assay with MCF7, with MDA-MB-435, with 786-0, with CAKI-1 and in the assay on SK-MEL-2 was > 100 µM (inactive) throughout.

In the case of `N#Cc1c(C#N)c(-c2ccco2)n(/N=C/c2ccco2)c1N`, the GI50 in the assay on RXF 393 is 19.9 µM (inactive); in the assay on SN12C, 32.6 µM (inactive); in the assay with COLO 205, > 100 µM (inactive); with RPMI-8226, > 100 µM (inactive); in the assay with IGROV-1 it was 35.6 µM (inactive); in the assay on SK-OV-3, 43.3 µM (inactive). The GI50 with PC-3 is > 100 µM (inactive); with TK-10 it was 96.6 µM (inactive); in the assay on OVCAR-5, > 100 µM (inactive); in the assay on MDA-MB-231, 11.3 µM (inactive); in the assay on DU-145 it was 39 µM (inactive); in the assay with Malme-3M it was > 100 µM (inactive). The GI50 in the assay on SNB-75 was 7.29 µM (inactive); with MCF7, 6.5 µM (inactive); with MDA-MB-435, > 100 µM (inactive); in the assay with 786-0, 33.2 µM (inactive); in the assay on CAKI-1, > 100 µM (inactive); in the assay on SK-MEL-2, > 100 µM (inactive).

Take `O=C(CN1CCOCC1)NC1=Nc2ncccc2C(=O)NN1`: the GI50 in the assay on RXF 393, in the assay on SN12C, in the assay with RPMI-8226, in the assay on IGROV-1, in the assay on SK-OV-3 and in the assay on PC-3 was > 10 µM (inactive) each time. Besides, the GI50 with TK-10, with OVCAR-5, with MDA-MB-231, in the assay on DU-145, with Malme-3M and in the assay with SNB-75 was > 10 µM (inactive) each time. Moreover, the GI50 in the assay on SK-MEL-28, in the assay on MCF7, in the assay with MDA-MB-435, in the assay with 786-0 and in the assay with SK-MEL-2 was > 10 µM (inactive) throughout.

For `Cc1nc2ccccc2c(=O)n1NC(=S)Nc1ccc(Cl)cc1[N+](=O)[O-]`, the GI50 with RXF 393, in the assay on SN12C, in the assay on COLO 205, in the assay on RPMI-8226, in the assay on IGROV-1 and with SK-OV-3 was > 100 µM (inactive) throughout. Also, the GI50 in the assay on PC-3 was > 100 µM (inactive); with TK-10, > 100 µM (inactive); in the assay on MDA-MB-231, > 100 µM (inactive); in the assay on DU-145, > 100 µM (inactive); in the assay on Malme-3M, > 100 µM (inactive); in the assay on SNB-75, > 78.3 µM (inactive). The GI50 in the assay with SK-MEL-28, in the assay with MCF7, with MDA-MB-435, in the assay with 786-0, with CAKI-1 and in the assay with SK-MEL-2 was > 100 µM (inactive) each time.

For the compound `O=c1[nH]c(=O)n(COCc2ccccc2)c2ccc([N+](=O)[O-])cc12`, the GI50 with RXF 393, with SN12C, in the assay with COLO 205, in the assay on IGROV-1, in the assay on SK-OV-3 and in the assay with PC-3 was > 100 µM (inactive) throughout. Besides, the GI50 in the assay with TK-10, with OVCAR-5, in the assay on MDA-MB-231, in the assay on DU-145, in the assay on SNB-75 and in the assay with SK-MEL-28 was > 100 µM (inactive) each time. Besides, the GI50 with MCF7 was > 100 µM (inactive); in the assay on MDA-MB-435, > 100 µM (inactive); with 786-0, 80 µM (inactive); with CAKI-1, > 100 µM (inactive); in the assay with SK-MEL-2 it was > 100 µM (inactive).

Regarding `C#CCOC(=O)C(N)CCCNC(=N)N` (stereo not drawn), the GI50 in the assay on RXF 393, in the assay with SN12C, in the assay on COLO 205, in the assay with RPMI-8226, in the assay on IGROV-1 and in the assay with PC-3 was > 100 µM (inactive) in each case. Also, the GI50 in the assay with TK-10, in the assay with OVCAR-5, in the assay on MDA-MB-231, with DU-145, in the assay with Malme-3M and in the assay on SNB-75 was > 100 µM (inactive) each time. The GI50 with SK-MEL-28, in the assay with MCF7, with MDA-MB-435, with 786-0, with CAKI-1 and with SK-MEL-2 was > 100 µM (inactive) each time.

Regarding `c1ccc(-c2csc3c2-n2cccc2C3N2CCCC2)cc1` (stereo not drawn), the GI50 with RXF 393 was > 100 µM (inactive); in the assay with SN12C, > 100 µM (inactive); with COLO 205, > 10 µM (inactive); with RPMI-8226, 20.8 µM (inactive); in the assay on IGROV-1, 21.1 µM (inactive); with PC-3, 32.7 µM (inactive). Further, the GI50 was 27 µM (inactive) in the assay with TK-10; 20.2 µM (inactive) in the assay on OVCAR-5; 35.6 µM (inactive) in the assay with MDA-MB-231; 95.3 µM (inactive) with DU-145; 23.9 µM (inactive) in the assay with Malme-3M; 14.9 µM (inactive) in the assay on SNB-75. In addition, the GI50 in the assay with SK-MEL-28 is 24.7 µM (inactive); with MCF7, 30.5 µM (inactive); in the assay with MDA-MB-435 it was 33.7 µM (inactive); in the assay with 786-0 it was 58.1 µM (inactive); in the assay with CAKI-1, 72.3 µM (inactive); with SK-MEL-2 it was > 100 µM (inactive).

Take `Fc1ccccc1C1SCC2=Nc3ccccc3CN21` (stereo not drawn): the GI50 in the assay on RXF 393, with SN12C, in the assay with COLO 205, with RPMI-8226, in the assay with SK-OV-3 and in the assay with PC-3 was > 100 µM (inactive) in each case. The GI50 was > 100 µM (inactive) in the assay on TK-10; 92.9 µM (inactive) in the assay on OVCAR-5; > 100 µM (inactive) in the assay on MDA-MB-231; > 100 µM (inactive) with DU-145; > 100 µM (inactive) in the assay on SNB-75; > 100 µM (inactive) with SK-MEL-28. Moreover, the GI50 with MCF7 is 80.2 µM (inactive); in the assay with MDA-MB-435, > 100 µM (inactive); in the assay on 786-0 it was 95.3 µM (inactive); in the assay with CAKI-1, > 100 µM (inactive); in the assay on SK-MEL-2 it was 43.6 µM (inactive).

`CCOP(=O)(OCC)C(c1ccccc1)N(C(=O)NC(F)(F)F)c1cccc(F)c1` (stereo not drawn): the GI50 was 64.7 µM (inactive) in the assay on RXF 393; > 100 µM (inactive) in the assay on SN12C; > 100 µM (inactive) in the assay on COLO 205; 83.2 µM (inactive) in the assay with RPMI-8226; 6.93 µM (inactive) in the assay on IGROV-1; 45.8 µM (inactive) with PC-3. The GI50 in the assay with TK-10 is > 100 µM (inactive); with OVCAR-5, > 10 µM (inactive); in the assay on MDA-MB-231 it was > 100 µM (inactive); in the assay on DU-145, > 100 µM (inactive); with Malme-3M, > 100 µM (inactive); with SNB-75 it was > 100 µM (inactive). The GI50 in the assay with SK-MEL-28, in the assay on MCF7, in the assay on MDA-MB-435, with 786-0 and in the assay on CAKI-1 was > 100 µM (inactive) in each case.

As to `CC(C)/C(Cl)=N\OC(NC(=O)P(=O)(c1ccccc1)c1ccccc1)(C(F)(F)F)C(F)(F)F`, the GI50 is 14.6 µM (inactive) in the assay with RXF 393; 11.9 µM (inactive) in the assay on SN12C; 11.7 µM (inactive) in the assay with COLO 205; 10.3 µM (inactive) with RPMI-8226; 10.8 µM (inactive) in the assay with IGROV-1; 27 µM (inactive) with SK-OV-3. Moreover, the GI50 in the assay on PC-3 is 12.6 µM (inactive); in the assay with TK-10 it was 11.7 µM (inactive); with OVCAR-5, 24.3 µM (inactive); with MDA-MB-231 it was 16 µM (inactive); with DU-145 it was 11.1 µM (inactive); in the assay with Malme-3M, 7.52 µM (inactive). Further, the GI50 was < 0.01 µM (active) with SNB-75; 14.9 µM (inactive) in the assay on SK-MEL-28; 13.3 µM (inactive) with MCF7; 16.3 µM (inactive) in the assay on MDA-MB-435; 10.3 µM (inactive) in the assay with 786-0; 23.7 µM (inactive) in the assay with CAKI-1.
